Test results from US7160902B2, “Amide derivatives and methods of their use” (Adolor Corporation, priority 2003, dated 2007).

Assays:
[1] = system: formalin-induced flinching; assay: In vivo formalin-induced nociception assay; design: species or system male Sprague-Dawley rats; details: dose of 300 μg, i.paw
Excerpt: Administration of formalin into the paw results in a localized inflammation and a pain response that is moderate in intensity and continuous in duration. Unlike many other assays of nociception, the formalin assay measures tonic pain that is a result of tissue injury, and therefore is a model that is more relevant to clinical pain states in humans (See Tjolsen et al., Pain 51: 5–17, 1992). In the rat the response to formalin-induced pain consists of spontaneous flinching behavior, characterized by paw lifting and paw shaking, and a rapid vibration of the paw after drawing it under the body. […] The early or acute phase lasts from 0–5 minutes post-formalin and is followed by a quiescent period lasting approximately 15 minutes. The tonic phase occurs from 20–35 minutes following formalin injection and is the interval where the number of flinching responses is maximal. […]
Inflammation is induced by subcutaneous injection of […] of a 5% formalin solution into the dorsal surface of the right hind paw of male Sprague-Dawley rats weighing 70–90 g. Injections of drug are given into the dorsal surface of the paw prior to formalin injection, and flinching behavior is quantified by counting the number of responses that occur during the tonic phase of pain, lasting from 20–35 minutes after formalin injection. […]

[2] = target: T1, cloned human δ opioid receptor (Homo sapiens, UniProt P41143); assay: In vitro binding assay, inhibition of [3H]diprenorphine binding, δ receptor; details: κ versus δ
T1 construct: expressed in transfected cells
T1 sequence (P41143 whole entry): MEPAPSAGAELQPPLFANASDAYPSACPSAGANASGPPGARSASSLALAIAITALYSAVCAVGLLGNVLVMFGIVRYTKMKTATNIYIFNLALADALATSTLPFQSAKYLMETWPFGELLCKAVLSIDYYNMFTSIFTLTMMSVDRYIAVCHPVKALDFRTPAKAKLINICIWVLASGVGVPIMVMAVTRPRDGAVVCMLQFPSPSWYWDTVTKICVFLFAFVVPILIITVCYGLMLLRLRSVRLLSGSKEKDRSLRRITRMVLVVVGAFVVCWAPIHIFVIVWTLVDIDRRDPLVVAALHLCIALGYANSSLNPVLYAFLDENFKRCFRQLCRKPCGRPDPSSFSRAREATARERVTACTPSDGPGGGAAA
Experimental: (§1) The potencies of the compounds of the invention were determined by testing the ability of a range of concentrations of each compound to inhibit the binding of the non-selective opioid antagonist, [^3H]diprenorphine, to the cloned human μ, κ, and δ opioid receptors, expressed in separate cell lines. IC50 values were obtained by nonlinear analysis of the data using GraphPad Prism version 3.00 for Windows (GraphPad Software, San Diego). Ki values were obtained by Cheng-Prusoff corrections of IC50 values.
(§2) The receptor binding method was a modification of the method of K. Raynor et al. (Mol. Pharmacol. 1994, 45, 330–334). […] The filters were rinsed 4 times with 1 mL of cold 50 mM Tris HCl, pH 7.8 and radioactivity remaining on the filters determined by scintillation spectroscopy. Nonspecific binding was determined by the minimum values of the titration curves and was confirmed by separate assay wells containing 10 μM naloxone. Ki values were determined by Cheng-Prusoff corrections of IC50 values derived from nonlinear regression fits of 12 point titration curves using GraphPad Prism® version 3.00 for Windows (GraphPad Software, San Diego, Calif.).
(§3) To determine the equilibrium dissociation constant for the inhibitors (Ki), radioligand bound (cpm) in the presence of various concentrations of test compounds was measured. […]

[3] = target: T2, cloned human κ opioid receptor (Homo sapiens, UniProt P41145); assay: In vitro binding assay, inhibition of [3H]diprenorphine binding, κ receptor; details: [3H]diprenorphine displacement; read-out: Ki against the human κ receptor
T2 construct: expressed in transfected cells
T2 sequence (P41145 whole entry): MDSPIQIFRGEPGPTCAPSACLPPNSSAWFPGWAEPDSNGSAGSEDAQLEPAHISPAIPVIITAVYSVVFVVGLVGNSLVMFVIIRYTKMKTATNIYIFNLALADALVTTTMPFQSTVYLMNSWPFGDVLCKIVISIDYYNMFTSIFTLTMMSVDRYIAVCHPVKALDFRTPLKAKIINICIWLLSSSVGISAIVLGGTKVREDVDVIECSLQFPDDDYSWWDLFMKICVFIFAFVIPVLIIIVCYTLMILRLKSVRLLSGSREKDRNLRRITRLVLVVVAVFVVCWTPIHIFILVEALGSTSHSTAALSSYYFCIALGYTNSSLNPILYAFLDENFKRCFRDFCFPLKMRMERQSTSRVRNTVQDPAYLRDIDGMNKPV
Experimental: as §1, §2, §3

[4] = target: T3, cloned human μ opioid receptor (Homo sapiens, UniProt P35372); assay: In vitro binding assay, inhibition of [3H]diprenorphine binding, μ receptor; details: κ versus μ
T3 construct: expressed in transfected cells
T3 sequence (P35372 whole entry): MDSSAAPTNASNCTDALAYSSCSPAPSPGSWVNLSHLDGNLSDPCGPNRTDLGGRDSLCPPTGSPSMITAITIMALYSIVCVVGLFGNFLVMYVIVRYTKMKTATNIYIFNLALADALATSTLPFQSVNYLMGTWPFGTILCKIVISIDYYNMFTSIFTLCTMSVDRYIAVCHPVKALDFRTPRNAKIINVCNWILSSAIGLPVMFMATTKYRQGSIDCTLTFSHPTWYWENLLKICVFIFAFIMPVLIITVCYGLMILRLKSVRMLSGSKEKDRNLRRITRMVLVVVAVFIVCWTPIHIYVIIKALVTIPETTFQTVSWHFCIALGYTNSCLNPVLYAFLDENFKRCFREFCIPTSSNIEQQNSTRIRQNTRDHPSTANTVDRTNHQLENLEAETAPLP
Experimental: as §1, §2, §3

cloned human κ receptors = target: T4, cloned human κ receptors (Homo sapiens, UniProt P41145); assay: Stimulation of [35S]GTPγS binding to membranes; type: biochemical
T4 construct: expressed in transfected cells
T4 sequence (P41145 whole entry): as the sequence (P41145 whole entry) above
Experimental: The potencies of the agonists were assessed by their abilities to stimulate [^35S]GTPγS binding to membranes containing the cloned human κ receptors.
To determine the EC50 value, which was the concentration to give half-maximal stimulation of [^35S]GTPγS binding, the amount of [^35S]GTPγS bound in the presence of various concentrations of agonists was measured. The EC50 value was then determined.

[5] = system: acetic acid-induced writhing; assay: Acetic acid-induced writhing; type: in vivo, male CF-1 mice; details: Mus musculus, sc; administered subcutaneously; read-out: ED50, blocking of acetic acid-induced writhing
Experimental: Injection of acetic acid into the peritoneal cavity is used as the noxious stimulus, and the number of writhing responses that occur in response to acetic acid are counted in order to quantify the response to pain.
The writhing assay is adapted from the procedure originally described by Taber, et al. (J. Pharmacol. Exp. Ther. 169: 29–38, 1986), using male CF-1 mice weighing 20–25 g. Animals are treated with various doses of drugs prior to the administration of an i.p. injection of 0.6% acetic acid solution. Mice are then placed into observation chambers and the number of writhing responses, as defined by a full hind limb extension and retraction, are recorded.
The mean number of writhing responses is calculated for vehicle-treated control mice, and the percent inhibition (% I) of writhing is calculated for each mouse that is treated with drug using the following formula: % I=100×(mean control writhing responses−individual test responses)(mean control writhing responses) (f) Hyperalgesia Induced by Tape Stripping

CN(C(=O)CNc1ccccc1)[C@H](CN1CC[C@H](O)C1)c1ccccc1 [Example 1, N-{2-[(S)-3-Hydroxy-pyrrolidin-1-yl]-(S)-1-phenyl-ethyl}-N-methyl-2-phenylamino-acetamide]
% A (percent antagonism of formalin-induced flinching) [1]: 96.2%
selectivity versus the human δ receptor [2]: > 100 ×
Ki [3]: 0.17 nM
selectivity versus the human μ receptor [4]: > 100 ×
functional activity at κ receptor (cloned human κ receptors): agonist
EC50 (cloned human κ receptors; half-maximal stimulation of [35S]GTPγS binding, read-out: EC50 (agonist)): 0.05 nM
ED50 [5]: 0.017 mg/kg
